Reference: PubChem BioAssay (NCI)
Several values for one entry are separate records, joined by “and”; a condition that tells them apart may be missing. Equal entries are not always repeated.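 Step 1: Grow cells in 96-well plates. Step 2: Expose to compound for 48 hours at 5 concentrations. Step 3: Interpolate endpoints linearly; if unreached, use highest concentration. The concentration for 50% growth inhibition is given as GI50. TGI: total growth inhibition.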

Tests used:
Assay in all cases: growth of human tumour cells (NCI), 48 h
CCRF-CEM leukemia = system: CCRF-CEM leukemia
COLO 205 colon = system: COLO 205 colon
NCI/ADR-RES ovarian = system: NCI/ADR-RES ovarian
SF-539 CNS = system: SF-539 CNS
TK-10 renal = system: TK-10 renal
IGROV1 ovarian = system: IGROV1 ovarian
LOX IMVI melanoma = system: LOX IMVI melanoma
SW-620 colon = system: SW-620 colon

Compound	GI50 (CCRF-CEM leukemia) [µM]	TGI (CCRF-CEM leukemia) [µM]	GI50 (COLO 205 colon) [µM]	TGI (COLO 205 colon) [µM]	GI50 (NCI/ADR-RES ovarian)	TGI (NCI/ADR-RES ovarian)	GI50 (SF-539 CNS) [µM]	TGI (SF-539 CNS) [µM]	GI50 (TK-10 renal) [µM]	TGI (TK-10 renal) [µM]	GI50 (IGROV1 ovarian) [µM]	TGI (IGROV1 ovarian) [µM]	GI50 (LOX IMVI melanoma) [µM]	TGI (LOX IMVI melanoma) [µM]	GI50 (SW-620 colon) [µM]	TGI (SW-620 colon) [µM]
COc1ccc(-c2ccc(/C=N/n3c(COc4ccccc4Cl)nn(CN4CCN(C)CC4)c3=S)o2)c([N+](=O)[O-])c1	21.7	> 100	24.4	60.3	18.5 µM	41.6 µM	19.7	39.2	12.9	45.4	–	–	–	–	–	–
CCOc1ccc([C@@H]2[C@@H](Oc3ccccc3)C(=O)N2c2cc(OC)c(OC)c(OC)c2)cc1	0.048	> 100	0.124	0.506	0.06 µM	> 100 µM	–	–	16	> 100	0.15	> 100	0.0642	> 100	0.0536	> 100
COc1ccccc1-n1c(-c2cc(O)ccc2C)cn2c3c(=O)[nH]c(=O)n(C)c3nc12	> 100	> 100	18.2	48	> 100 µM	> 100 µM	8.86	> 100	13.3	48.7	3.52	13.9	2.28	16	> 100	> 100
CC(=O)c1c(C(F)(F)F)n([O-])c2ccc(Cl)cc2[n+]1=O	0.0108	2.22	1.77	–	3.4 µM	> 23.1 µM	0.161	0.526	0.838	2.66	0.322	–	0.652	3.92	1.17	–
NS(=O)(=O)c1cc2c(cc1Cl)NC(Cc1ccccc1)NS2(=O)=O (configuration not stated)	–	–	–	> 100	–	> 100 µM	–	> 100	–	> 100	–	> 100	–	> 100	–	> 100
C=C1C[C@](OC)([C@H](O)C(=O)N[C@@H](OC)[C@@H]2C[C@@H](O)C(C)(C)[C@@H](C[C@@H](COC)OC)O2)O[C@H](C)[C@@H]1C	0.0168	0.361	0.00123	0.00342	0.0141 µM and 0.0297 µM	0.142 µM and 0.314 µM	0.000166	0.00213	0.00141	0.00388	0.00295	0.0161	0.00121	0.00295	0.00157	0.00508
Cc1ccc(C2NC(=S)NC3=C2CCOc2c3ccc3ccccc23)cc1 (configuration not stated)	> 100	> 100	9.64	> 100	96.5 µM	> 100 µM	> 100	> 100	> 100	> 100	–	–	–	–	–	–
CCC(C)n1cc(C)c2c(C(=O)NCc3c(C)cc(C)[nH]c3=O)cc(Br)cc21 (configuration not stated)	30.8	> 100	42.1	> 100	33.8 µM	> 100 µM	> 100	> 100	> 100	> 100	> 100	> 100	32.8	> 100	36.4	> 100
